Key:
human EAAT3 = biological target: T1, human EAAT3 (Homo sapiens, UniProt P43005); assay: FLIPR Membrane Potential (FMP) assay, antagonist potency at human EAAT3; assay type: cell-based; conditions: HEK-293 cells stably expressing human EAAT3; L-glutamate as agonist at EC80; antagonist applied 15 min before agonist; Kb by Cheng-Prusoff from IC50
T1 construct: expressed in transfected cells
T1 sequence (P43005 1-524): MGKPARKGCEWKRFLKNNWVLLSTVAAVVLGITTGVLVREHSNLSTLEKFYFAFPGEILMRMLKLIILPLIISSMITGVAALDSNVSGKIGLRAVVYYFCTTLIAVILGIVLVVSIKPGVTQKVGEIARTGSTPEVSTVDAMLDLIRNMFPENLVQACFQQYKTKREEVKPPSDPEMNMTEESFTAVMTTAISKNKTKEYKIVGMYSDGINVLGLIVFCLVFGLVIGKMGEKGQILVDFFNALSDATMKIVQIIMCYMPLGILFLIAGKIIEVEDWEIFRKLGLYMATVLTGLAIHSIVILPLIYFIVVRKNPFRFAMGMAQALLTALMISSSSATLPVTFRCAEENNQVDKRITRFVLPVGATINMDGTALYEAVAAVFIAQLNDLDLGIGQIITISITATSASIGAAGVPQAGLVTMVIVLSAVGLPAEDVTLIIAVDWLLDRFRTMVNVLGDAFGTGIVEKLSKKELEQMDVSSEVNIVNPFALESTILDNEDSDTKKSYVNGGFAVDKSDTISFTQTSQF
Experimental: The FLIPR Membrane Potential (FMP) Assay
HEK-293 cells stably expressing human EAAT3 were seeded at 55 000 cells/well in growth medium (DMEM glutamate free (Invitrogen 11960-044), 1% Pen Strep (10 ml/1 GIBCO BRL N°15140-023), 10% FCS non dialysed heat inactivated, 5 mg/l puromycin) in poly-D-lysine treated 96-well black microtiter plates with clear-bottom. After 24 h, the growth medium was removed and 100 μl/well of Krebs buffer (140 mM NaCl, 4.7 mM KCl, 2.5 mM CaCl2, 1.2 mM MgCl2, 11 mM HEPES, 10 mM D-glucose, pH=7.4) added. The cells were then loaded by adding 100 μl/well FMP assay dye (FLIPR Membrane Potential assay reagent, Molecular Devices). The 96-well plates were then incubated at 37° C. for 1 h. The depolarization of the cells will cause more dye to enter in the cells, where it will bind to intracellular proteins and lipids and cause an increase in the fluorescence signal. Antagonist potency at human EAAT3 was determined by using L-glutamate as agonist at a concentration which gives 80% of the maximum response. The antagonists were applied 15 min before the application of the agonist L-glutamate. The assays were performed at room temperature and measurements done by using a Fluorometric Imaging Plate Reader (FLIPR, Molecular Devices) and filter #2. Responses were measured as peak increase in fluorescence minus basal (i.e. fluorescence without addition of L-glutamate). Kb was determined using the Cheng-Prusoff equation Kb=IC50/[1+(A/EC50)], where IC50 is the concentration of the antagonist producing 50% inhibition, A is the concentration of the agonist against which the IC50 is being determined (at EC80) and EC50 is the concentration of the agonist producing 50% […].

Row | Compound | melting point [°C] | Kb (human EAAT3) [nM]
1 | CC(C)(C)NC(=O)c1cc(-c2ccc(Cl)cc2)cc(-n2ccnc2C(C)(C)C)c1 [Example 28, N-tert-Butyl-3-(2-tert-butylimidazol-1-yl)-5-(4-chlorophenyl)-benzamide] | 101 | 160
2 | CCc1nccn1-c1cc(C(=O)NC(C)(C)C)cc(-c2ccc(F)cc2)c1 [Example 10, N-tert-Butyl-3-(2-ethylimidazol-1-yl)-5-(4-fluorophenyl)-benzamide] | 238 | 110
3 | CCc1nccn1-c1cc(C(=O)NC(C)(C)C2CC2)cc(-c2ccc(F)cc2)c1 [Example 18, N-(2-Cyclopropylpropan-2-yl)-3-(2-ethylimidazol-1-yl)-5-(4-fluorophenyl)-benzamide] | 70 | 170
4 | CC(C)(CO)NC(=O)c1cc(-c2ccc(Cl)cc2)cc(-n2ccnc2C2CC2)c1 [Example 42, 3-(4-Chlorophenyl)-5-(2-cyclopropylimidazol-1-yl)-N-(1-hydroxy-2-methylpropan-2-yl)-benzamide] | 99 | 170
5 | CC(C)c1nccn1-c1cc(C(=O)NC(C)(C)C)cc(-c2ccc(F)c(F)c2)c1 [Example 23, N-tert-Butyl-3-(3,4-difluorophenyl)-5-(2-propan-2-ylimidazol-1-yl)-benzamide] | 91.5 | 150
6 | CC(C)c1nccn1-c1cc(C(=O)NC(C)(C)C)cc(-c2ccc(C3CC3)cc2)c1 [Example 25, N-tert-Butyl-3-(4-cyclopropylphenyl)-5-(2-propan-2-ylimidazol-1-yl)-benzamide] | 95 | 210
7 | CC(C)(C)NC(=O)c1cc(-c2ccc(Cl)cc2)cc(-n2ccnc2C2CC2)c1 [Example 5, N-tert-Butyl-3-(4-chlorophenyl)-5-(2-cyclopropylimidazol-1-yl)-benzamide] | – | 120
8 | Cc1nccn1-c1cc(C(=O)NC(C)(C)C2CC2)cc(-c2ccc(F)cc2)c1 [Example 19, N-(2-Cyclopropylpropan-2-yl)-3-(4-fluorophenyl)-5-(2-methylimidazol-1-yl)-benzamide] | 184 | 290
9 | Cc1nccn1-c1cc(C(=O)NC(C)(C)C2CC2)cc(-c2ccc(Cl)cc2)c1 [Example 11, 3-(4-Chlorophenyl)-N-(2-cyclopropylpropan-2-yl)-5-(2-methylimidazol-1-yl)-benzamide] | 180 | 170
10 | Cc1ccc(-c2cc(C(=O)NC(C)(C)C)cc(-n3ccnc3C(C)C)c2)cc1F [Example 22, N-tert-Butyl-3-(3-fluoro-4-methylphenyl)-5-(2-propan-2-ylimidazol-1-yl)-benzamide] | 98 | 120
11 | CC(C)(C)NC(=O)c1cc(-c2ccc(Cl)cc2)cc(-n2ccnc2)c1 [Example 2, N-tert-Butyl-3-(4-chlorophenyl)-5-imidazol-1-ylbenzamide] | – | 230
12 | CCc1nccn1-c1cc(C(=O)NC(C)(C)C2CC2)cc(-c2ccc(Cl)cc2)c1 [Example 9, 3-(4-Chlorophenyl)-N-(2-cyclopropylpropan-2-yl)-5-(2-ethylimidazol-1-yl)-benzamide] | 183 | 220
13 | CC(C)(C)NC(=O)c1cc(-c2ccc(F)cc2)cc(-n2ccnc2C2CC2)c1 [Example 16, N-tert-Butyl-3-(2-cyclopropylimidazol-1-yl)-5-(4-fluorophenyl)-benzamide] | 250.5 | 130
14 | CC(C)(C)NC(=O)c1cc(-c2ccc(Cl)cc2)cc(-n2ccnc2C(C)(C)O)c1 [Example 40, N-tert-Butyl-3-(4-chlorophenyl)-5-[2-(2-hydroxypropan-2-yl)-imidazol-1-yl]-benzamide] | 78 | 70
15 | CC(C)(NC(=O)c1cc(-c2ccc(Cl)cc2)cc(-n2ccnc2C2CC2)c1)C(F)(F)F [Example 15, 3-(4-Chlorophenyl)-5-(2-cyclopropylimidazol-1-yl)-N-(1,1,1-trifluoro-2-methylpropan-2-yl)-benzamide] | 101.5 | 150
16 | CC(C)(NC(=O)c1cc(-c2ccc(F)cc2)cc(-n2ccnc2C2CC2)c1)C1CC1 [Example 20, 3-(2-Cyclopropylimidazol-1-yl)-N-(2-cyclopropylpropan-2-yl)-5-(4-fluorophenyl)-benzamide] | 83 | 33
17 | CC(C)(C)NC(=O)c1cc(-c2ccc(F)cc2)cc(-n2ccnc2C(C)(C)C)c1 [Example 32, N-tert-Butyl-3-(2-tert-butylimidazol-1-yl)-5-(4-fluorophenyl)-benzamide] | 218 | 180
18 | CC(C)c1nccn1-c1cc(C(=O)NC(C)(C)C2CC2)cc(-c2ccc(F)cc2)c1 [Example 17, N-(2-Cyclopropylpropan-2-yl)-3-(4-fluorophenyl)-5-(2-propan-2-ylimidazol-1-yl)-benzamide] | 80 | 120
19 | CC(C)c1nccn1-c1cc(C(=O)NC(C)(C)C)cc(-c2ccc(Cl)c(F)c2)c1 [Example 24, N-tert-Butyl-3-(4-chloro-3-fluorophenyl)-5-(2-propan-2-ylimidazol-1-yl)-benzamide] | 98 | 190

The next lines start with the values.

Row | melting point [°C] | Kb (human EAAT3) [nM] | Compound
20 | 115.5 | 200 | CC(C)c1nccn1-c1cc(C(=O)NC(C)(C)C(F)(F)F)cc(-c2ccc(Cl)cc2)c1 [Example 7, 3-(4-Chlorophenyl)-5-(2-propan-2-ylimidazol-1-yl)-N-(1,1,1-trifluoro-2-methylpropan-2-yl)-benzamide]
21 | 224 | 76 | CC(C)c1nccn1-c1cc(C(=O)NC(C)(C)C)cc(-c2ccc(F)cc2)c1 [Example 6, N-tert-Butyl-3-(4-fluorophenyl)-5-(2-propan-2-ylimidazol-1-yl)-benzamide]
22 | 85 | 170 | CCC(C)(C)NC(=O)c1cc(-c2ccc(Cl)cc2)cc(-n2ccnc2C2CC2)c1 [Example 37, 3-(4-Chlorophenyl)-5-(2-cyclopropylimidazol-1-yl)-N-(2-methylbutan-2-yl)-benzamide]
23 | 97 | 540 | CC(C)c1nccn1-c1cc(C(=O)NC(C)(C)CO)cc(-c2ccc(Cl)cc2)c1 [Example 41, 3-(4-Chlorophenyl)-N-(1-hydroxy-2-methylpropan-2-yl)-5-(2-propan-2-yl-imidazol-1-yl)-benzamide]
24 | – | 180 | CC(C)c1nccn1-c1cc(C(=O)NC(C)(C)C)cc(-c2ccc(Cl)cc2)c1 [Example 1, N-tert-Butyl-3-(4-chlorophenyl)-5-(2-propan-2-ylimidazol-1-yl)-benzamide]
25 | 234 | 80 | CC(C)(CO)NC(=O)c1cc(-c2ccc(Cl)cc2)cc(-n2ccnc2C(C)(C)C)c1 [Example 43, 3-(2-tert-Butylimidazol-1-yl)-5-(4-chlorophenyl)-N-(1-hydroxy-2-methylpropan-2-yl)-benzamide]
26 | 189.5 | 410 | CCC(C)(C)NC(=O)c1cc(-c2ccc(Cl)cc2)cc(-n2ccnc2C(C)(C)C)c1 [Example 31, 3-(2-tert-Butylimidazol-1-yl)-5-(4-chlorophenyl)-N-(2-methylbutan-2-yl)-benzamide]
27 | 87 | 330 | CCC(C)(C)NC(=O)c1cc(-c2ccc(Cl)cc2)cc(-n2ccnc2C(C)C)c1 [Example 36, 3-(4-Chlorophenyl)-N-(2-methylbutan-2-yl)-5-(2-propan-2-ylimidazol-1-yl)-benzamide]
28 | 220 | 190 | Cc1nccn1-c1cc(C(=O)NC(C)(C)C)cc(-c2ccc(Cl)cc2)c1 [Example 3, N-tert-Butyl-3-(4-chlorophenyl)-5-(2-methylimidazol-1-yl)-benzamide]
29 | – | 180 | CCc1nccn1-c1cc(C(=O)NC(C)(C)C)cc(-c2ccc(Cl)cc2)c1 [Example 4, N-tert-Butyl-3-(4-chlorophenyl)-5-(2-ethylimidazol-1-yl)-benzamide]

— patent publication US10029989B2, “Imidazole derivatives” (Hoffmann-La Roche Inc., priority 2015, dated 2018)
